In PubChem BioAssay AID1963434 (Molecular Pharmacology Branch, DTP, NCI, 2024):

Test system: 755483-174-R-J1-PDC complex spheroid growth, percent test/control
Assay: Anticancer human tumor 755483-174-R-J1-PDC patient-derived rhabdomyosarcoma cell line growth inhibition [Asc]
Details: for IC50: curve of first compound; for viability, T/C: stronger effect = lower value; active = viability on the fitted dose curve at most 10% of control; inactive = the rest
In short: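 Stromal components (HUVEC and hMSC) are co-assembled with the cancer cells into multicellular spheroids. Drugs are then added singly or paired, at concentrations falling by half-log increments from a clinically achievable maximum, capped at 10 microM without known Cmax.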

[1] = second compound 0.01 µM, first compound 0.00949 µM
[2] = second compound 0.01 µM, first compound 0.03 µM
[3] = second compound 0.01 µM, first compound 0.0949 µM
[4] = second compound 0.01 µM, first compound 0.3 µM
[5] = second compound 0.01 µM, first compound 0.949 µM
[6] = second compound 0.01 µM, first compound 3 µM
[7] = second compound 0.0316 µM, first compound 0.00949 µM
[8] = second compound 0.0316 µM, first compound 0.03 µM
[9] = second compound 0.0316 µM, first compound 0.0949 µM
[10] = second compound 0.0316 µM, first compound 0.3 µM
[11] = second compound 0.0316 µM, first compound 0.949 µM
[12] = second compound 0.0316 µM, first compound 3 µM
[13] = second compound 0.1 µM, first compound 0.00949 µM
[14] = second compound 0.1 µM, first compound 0.03 µM
[15] = second compound 0.1 µM, first compound 0.0949 µM
[16] = second compound 0.1 µM, first compound 0.3 µM
[17] = second compound 0.1 µM, first compound 0.949 µM
[18] = second compound 0.1 µM, first compound 3 µM
[19] = second compound 0.316 µM, first compound 0.00949 µM
[20] = second compound 0.316 µM, first compound 0.03 µM
[21] = second compound 0.316 µM, first compound 0.0949 µM
[22] = second compound 0.316 µM, first compound 0.3 µM
[23] = second compound 0.316 µM, first compound 0.949 µM
[24] = second compound 0.316 µM, first compound 3 µM
[25] = second compound 1 µM, first compound 0.00949 µM
[26] = second compound 1 µM, first compound 0.03 µM
[27] = second compound 1 µM, first compound 0.0949 µM
[28] = second compound 1 µM, first compound 0.3 µM
[29] = second compound 1 µM, first compound 0.949 µM
[30] = second compound 1 µM, first compound 3 µM
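Note: spheroids exposed to compounds for seven days before readout.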

CCN1C(C(=O)NC23CCC(C(=O)O)(CC2)CC3)C(c2cccc(Cl)c2F)C2(C(=O)Nc3cc(Cl)ccc32)C12CCCCC2 (stereo not given) + CNC(C)C(=O)NC1CN(S(=O)(=O)c2cccc(S(=O)(=O)N3CCC4CCC(C(=O)NC(c5ccccc5)c5ccccc5)N4C(=O)C(NC(=O)C(C)NC)C3)c2)CCC2CCC(C(=O)NC(c3ccccc3)c3ccccc3)N2C1=O
inactive: viability, T/C [1] 56.2% | viability, T/C [2] 73.9% | viability, T/C [3] 55% | viability, T/C [4] 39.3% | viability, T/C [5] 48.2% | viability, T/C [6] 38.6% | viability, T/C [7] 38.6% | viability, T/C [8] 45.8% | viability, T/C [9] 50% | viability, T/C [10] 49.2% | viability, T/C [11] 44.2% | viability, T/C [12] 28.9% | viability, T/C [13] 27.9% | viability, T/C [14] 23.6% | viability, T/C [15] 39.4% | viability, T/C [16] 28.9% | viability, T/C [17] 32.6% | viability, T/C [18] 24.4% | viability, T/C [19] 19.9% | viability, T/C [20] 26.2% | viability, T/C [21] 40% | viability, T/C [22] 37.9% | viability, T/C [23] 23.5% | viability, T/C [24] 27% | viability, T/C [25] 23.5% | viability, T/C [26] 23.1% | viability, T/C [27] 18.1% | viability, T/C [28] 23.1% | viability, T/C [29] 21.5% | viability, T/C [30] 34.4%
< 9.49 nM: IC50 (second compound 0.0316 µM) | IC50 (second compound 0.1 µM) | IC50 (second compound 0.316 µM) | IC50 (second compound 1 µM)
148 nM: IC50 (second compound 0.01 µM)

Cc1nc(N2CCC3(CC2)COC(C)C3N)c(CO)nc1Sc1ccnc(N)c1Cl (stereo not given) + CNC(C)C(=O)NC1CN(S(=O)(=O)c2cccc(S(=O)(=O)N3CCC4CCC(C(=O)NC(c5ccccc5)c5ccccc5)N4C(=O)C(NC(=O)C(C)NC)C3)c2)CCC2CCC(C(=O)NC(c3ccccc3)c3ccccc3)N2C1=O
< 9.49 nM: IC50 (second compound 0.0316 µM) | IC50 (second compound 0.1 µM) | IC50 (second compound 0.316 µM) | IC50 (second compound 1 µM)
inactive: viability, T/C [1] 46.1% | viability, T/C [2] 57.3% | viability, T/C [3] 50.5% | viability, T/C [4] 35.6% | viability, T/C [5] 23% | viability, T/C [6] 24.7% | viability, T/C [7] 41.4% | viability, T/C [8] 45.6% | viability, T/C [9] 40.8% | viability, T/C [10] 32.7% | viability, T/C [11] 23.2% | viability, T/C [12] 18.2% | viability, T/C [13] 26.6% | viability, T/C [14] 45.9% | viability, T/C [15] 20.3% | viability, T/C [16] 29.9% | viability, T/C [17] 30.1% | viability, T/C [18] 18.5% | viability, T/C [19] 50.1% | viability, T/C [20] 32% | viability, T/C [21] 22.1% | viability, T/C [22] 24.7% | viability, T/C [23] 23.5% | viability, T/C [24] 11.4% | viability, T/C [25] 17.1% | viability, T/C [26] 16.9% | viability, T/C [27] 21.7% | viability, T/C [28] 24.9% | viability, T/C [29] 19.1% | viability, T/C [30] 12.2%
103 nM: IC50 (second compound 0.01 µM)
